Data on 1 compound can be found in US20100160214A1 (SERENITY PHARMACEUTICALS CORPORATION, priority 2008, published 2010).

One data set in a line: clinical. The note with it: human, in vivo; for CL/F / bioavailability / Tmax / half-life: both; for bioavailability: F % (fraction bioavailable). On the procedure: The open-label preliminary study of the effects and pharmacokinetics of the prototype composition was conducted with six male and six female healthy, water loaded, non-smoking volunteer subjects, following the protocol described generally below. In summary, each subject was dosed up to four times over a period of one week with dosing administered every other day. […] All subjects were screened prior to the first treatment, including evaluations of medical history, complete physical exam including nasopharyngeal exam, serum chemistry including serum osmolality, urinalysis including urine osmolality.
On day one all subjects were asked to have his/her morning void prior to breakfast, and thereafter subjects started the water loading process. […] To achieve a steady state diuresis, the subjects were directed to drink a volume of water corresponding to at least 1.5% and up to 3% of body weight. The water loading process started about two hours prior to the dosing of the first subject. Subjects were asked to void every 20 minutes. To ensure continuous water loaded state, the subjects replaced their urinary output loss with an equivalent amount of fluid. Insensible loss was not measured or replaced. When the urinary output rate exceeded 10 ml/min in two consecutive measurements (defined as water loaded state) in the subjects, dosing began. Subjects were maintained in the water loaded state with equivalent fluid intake versus fluid loss.
Blood sampling for pharmacokinetic determinations was performed at 1, 1.5, 2, 3, 4 and 6 hours post dose. Two seven ml blood samples were collected at each time point. […] 3.2 (Pharsight Corporation, USA). A plasma concentration value below the limit of quantitation (“LOQ”) followed by values above the limit was set at ‘LOQ/2’ for the analysis and for the descriptive statistics on concentrations. Values below LOQ not followed by values above the LOQ were excluded from the analysis, and set to zero in the descriptive statistics on concentrations.
(§1) Other than the dose level, all procedures were the same as those described for day one.
as §1
Other than the dosing paradigm, all procedures were the same as described on day one.
Assay values below the level of detection that occurred between two non-zero concentrations were considered to be “missing” for purposes of calculating the AUC. […] Accordingly, an average terminal half-life (Avg T1/2) was calculated for each subject that included a treatment with evaluable half-lives in that subject. […] The AUC could be calculated for each treatment and subject using the calculated average T1/2 value.
The AUCall is the AUC calculated using the trapezoidal rule that assumes that the concentration declines to 0.00 at the next sample collection time following the last quantifiable concentration. In the cases where concentrations had not declined to below the limit of detection by the time of the last scheduled sample, AUCall was the same as AUCtlqc.
The AUCtlqc is the AUC as calculated to the Time of the Last Quantifiable Concentration. This value is extrapolated using the ratio of the last quantifiable concentration and the terminal elimination rate to give the AUC∞. Therefore AUC∞ is always larger than the AUCtlqc. AUCall will also always be equal to or greater than AUCtlqc, but may be larger or smaller than AUC∞.

The conditions of data set [1]: in vivo, cited from earlier work.

Where two headings read alike, the source gives them in different places. Where only a bound is given, the exact number is not on record here.

Turning to `NC(=O)CC[C@@H]1NC(=O)[C@H](Cc2ccccc2)NC(=O)[C@H](Cc2ccc(O)cc2)NC(=O)CCSSC[C@@H](C(=O)N2CCC[C@H]2C(=O)N[C@H](CCCN=C(N)N)C(=O)NCC(N)=O)NC(=O)[C@H](CC(N)=O)NC1=O` [desmopressin, 1-desamino-8-D-arginine vasopressin], the CL/F – broadly, the apparent clearance, not corrected for the fraction that reaches the circulation – was 383 mL/min in the data set “clinical” and 233 mL/min in “clinical” (sc). The bioavailability – broadly, the share of a dose that reaches the circulation, judged against a reference dose that is usually intravenous – in the data set “clinical” was approximately 55%; in “clinical” (sc) it was 100%; in data set [1] (human, inhaled or intranasal), 3-5%; in data set [1] (po), “far less than one percent”. Moreover, the Tmax (as a rule, the time at which the peak concentration occurs) worked out at 0.88 ± 0.349 h in “clinical” (sc) and 0.8 ± 0.406 h in “clinical” (topical or ocular). Besides, the half-life – broadly, the time needed for the level to fall by half in the phase considered – in the data set “clinical” (sc, Avg T1/2) is 1.68 ± 0.66 h; in the data set “clinical” (sc, T1/2), 2.09 ± 0.32 h; in the data set “clinical” (topical or ocular, Avg T1/2), 1.2 ± 0.42 h; in “clinical” (topical or ocular, T1/2), 1.39 ± 0.61 h. For the same compound, the “AUC∞* (modified AUC∞ using average T1/2)” value in “clinical” (sc) is 0.00785 ± 0.00421 ng·h/mL; in the data set “clinical” (topical or ocular), 0.00446 ± 0.00309 ng·h/mL. In data set [1] (human), the half life is not below 1.5 h. The “range of Cmax” value in data set [1] (inhaled or intranasal, 20 ug) was 6-10 fold.
